# Source: PubChem BioAssay (NCI)
#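 Test compounds were applied to cells in 96-well plates for 48 hours at 5 doses. TGI is the concentration that stops growth completely.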
# Test system: HCC-2998 colon
# Assay: NCI anticancer screen, dose series, 48 h
row,SMILES,TGI [µM]
1,COc1ccc(N2C(=O)CC(C3CC(C(C)(C)C)CCC3=O)C2=O)cc1 (stereo not given),> 100
2,CC(=O)Nc1ccc(N2C(=O)/C(=C\c3cccc(Oc4ccccc4)c3)S(=O)(=O)C2c2ccccc2)cc1 (stereo not given),> 100
3,O=c1cnn(C/C=C/CBr)c(=O)[nH]1,34.7

# Test system: SK-OV-3 ovarian
# Assay: NCI anticancer screen, dose series, 48 h
row,SMILES,TGI [µM]
1,C1C2CC3CC1CC(Nc1nc(NC45CC6CC(CC(C6)C4)C5)nc(NC45CC6CC(CC(C6)C4)C5)n1)(C2)C3,> 100
2,COc1cc(/C=C2\C[C@H]3[C@@H]4CCc5cc(O)ccc5[C@H]4CC[C@]3(C)C2=O)cc(OC)c1OC,48.3
3,COc1ccc(N2C(=O)CC(C3CC(C(C)(C)C)CCC3=O)C2=O)cc1 (stereo not given),> 100
4,CC(=O)Nc1ccc(N2C(=O)/C(=C\c3cccc(Oc4ccccc4)c3)S(=O)(=O)C2c2ccccc2)cc1 (stereo not given),> 100
5,CCCCS(=O)CCC(N)P(=O)(O)O (stereo not given),> 100
6,O=C(O)CCC(=O)c1ccc[nH]1,> 100

# Test system: MDA-MB-435
# Assay: NCI anticancer screen, dose series, 48 h
row,SMILES,TGI [µM]
1,C1C2CC3CC1CC(Nc1nc(NC45CC6CC(CC(C6)C4)C5)nc(NC45CC6CC(CC(C6)C4)C5)n1)(C2)C3,> 100
2,COc1cc(/C=C2\C[C@H]3[C@@H]4CCc5cc(O)ccc5[C@H]4CC[C@]3(C)C2=O)cc(OC)c1OC,48.6
3,COc1ccc(N2C(=O)CC(C3CC(C(C)(C)C)CCC3=O)C2=O)cc1 (stereo not given),> 100
4,CC(=O)Nc1ccc(N2C(=O)/C(=C\c3cccc(Oc4ccccc4)c3)S(=O)(=O)C2c2ccccc2)cc1 (stereo not given),> 100
5,O=c1cnn(C/C=C/CBr)c(=O)[nH]1,33.7
6,CCCCS(=O)CCC(N)P(=O)(O)O (stereo not given),> 100
7,O=C(O)CCC(=O)c1ccc[nH]1,> 100

# Test system: NCI-H460 lung
# Assay: NCI anticancer screen, dose series, 48 h
row,SMILES,TGI [µM]
1,C1C2CC3CC1CC(Nc1nc(NC45CC6CC(CC(C6)C4)C5)nc(NC45CC6CC(CC(C6)C4)C5)n1)(C2)C3,> 100
2,COc1cc(/C=C2\C[C@H]3[C@@H]4CCc5cc(O)ccc5[C@H]4CC[C@]3(C)C2=O)cc(OC)c1OC,> 100
3,COc1ccc(N2C(=O)CC(C3CC(C(C)(C)C)CCC3=O)C2=O)cc1 (stereo not given),> 100
4,CC(=O)Nc1ccc(N2C(=O)/C(=C\c3cccc(Oc4ccccc4)c3)S(=O)(=O)C2c2ccccc2)cc1 (stereo not given),> 100
5,O=c1cnn(C/C=C/CBr)c(=O)[nH]1,36.5
6,CCCCS(=O)CCC(N)P(=O)(O)O (stereo not given),> 100
7,O=C(O)CCC(=O)c1ccc[nH]1,> 100

# Test system: SK-MEL-28 melanoma
# Assay: NCI anticancer screen, dose series, 48 h
row,SMILES,TGI [µM]
1,C1C2CC3CC1CC(Nc1nc(NC45CC6CC(CC(C6)C4)C5)nc(NC45CC6CC(CC(C6)C4)C5)n1)(C2)C3,> 93.2
2,COc1cc(/C=C2\C[C@H]3[C@@H]4CCc5cc(O)ccc5[C@H]4CC[C@]3(C)C2=O)cc(OC)c1OC,24.8
3,COc1ccc(N2C(=O)CC(C3CC(C(C)(C)C)CCC3=O)C2=O)cc1 (stereo not given),> 100
4,CC(=O)Nc1ccc(N2C(=O)/C(=C\c3cccc(Oc4ccccc4)c3)S(=O)(=O)C2c2ccccc2)cc1 (stereo not given),> 100
5,O=c1cnn(C/C=C/CBr)c(=O)[nH]1,41.9
6,CCCCS(=O)CCC(N)P(=O)(O)O (stereo not given),> 100

# Test system: IGROV1 ovarian
# Assay: NCI anticancer screen, dose series, 48 h
row,SMILES,TGI [µM]
1,COc1cc(/C=C2\C[C@H]3[C@@H]4CCc5cc(O)ccc5[C@H]4CC[C@]3(C)C2=O)cc(OC)c1OC,32.8
2,COc1ccc(N2C(=O)CC(C3CC(C(C)(C)C)CCC3=O)C2=O)cc1 (stereo not given),> 100
3,CC(=O)Nc1ccc(N2C(=O)/C(=C\c3cccc(Oc4ccccc4)c3)S(=O)(=O)C2c2ccccc2)cc1 (stereo not given),> 100
4,O=c1cnn(C/C=C/CBr)c(=O)[nH]1,37.7
5,CCCCS(=O)CCC(N)P(=O)(O)O (stereo not given),> 100
6,O=C(O)CCC(=O)c1ccc[nH]1,> 100

# Test system: DU-145 prostate
# Assay: NCI anticancer screen, dose series, 48 h
row,SMILES,TGI [µM]
1,C1C2CC3CC1CC(Nc1nc(NC45CC6CC(CC(C6)C4)C5)nc(NC45CC6CC(CC(C6)C4)C5)n1)(C2)C3,> 100
2,COc1cc(/C=C2\C[C@H]3[C@@H]4CCc5cc(O)ccc5[C@H]4CC[C@]3(C)C2=O)cc(OC)c1OC,17.5
3,COc1ccc(N2C(=O)CC(C3CC(C(C)(C)C)CCC3=O)C2=O)cc1 (stereo not given),> 100
4,CC(=O)Nc1ccc(N2C(=O)/C(=C\c3cccc(Oc4ccccc4)c3)S(=O)(=O)C2c2ccccc2)cc1 (stereo not given),> 100
5,O=c1cnn(C/C=C/CBr)c(=O)[nH]1,43.8
6,CCCCS(=O)CCC(N)P(=O)(O)O (stereo not given),> 100
7,O=C(O)CCC(=O)c1ccc[nH]1,> 100

# Test system: SF-268 CNS
# Assay: NCI anticancer screen, dose series, 48 h
row,SMILES,TGI [µM]
1,C1C2CC3CC1CC(Nc1nc(NC45CC6CC(CC(C6)C4)C5)nc(NC45CC6CC(CC(C6)C4)C5)n1)(C2)C3,> 100
2,COc1cc(/C=C2\C[C@H]3[C@@H]4CCc5cc(O)ccc5[C@H]4CC[C@]3(C)C2=O)cc(OC)c1OC,24
3,COc1ccc(N2C(=O)CC(C3CC(C(C)(C)C)CCC3=O)C2=O)cc1 (stereo not given),> 100
4,O=c1cnn(C/C=C/CBr)c(=O)[nH]1,39.3
5,CCCCS(=O)CCC(N)P(=O)(O)O (stereo not given),> 100
6,O=C(O)CCC(=O)c1ccc[nH]1,> 100

# Test system: CCRF-CEM leukemia
# Assay: NCI anticancer screen, dose series, 48 h
row,SMILES,TGI [µM]
1,C1C2CC3CC1CC(Nc1nc(NC45CC6CC(CC(C6)C4)C5)nc(NC45CC6CC(CC(C6)C4)C5)n1)(C2)C3,> 100
2,COc1cc(/C=C2\C[C@H]3[C@@H]4CCc5cc(O)ccc5[C@H]4CC[C@]3(C)C2=O)cc(OC)c1OC,27.4
3,COc1ccc(N2C(=O)CC(C3CC(C(C)(C)C)CCC3=O)C2=O)cc1 (stereo not given),> 100
4,CC(=O)Nc1ccc(N2C(=O)/C(=C\c3cccc(Oc4ccccc4)c3)S(=O)(=O)C2c2ccccc2)cc1 (stereo not given),> 100
5,O=c1cnn(C/C=C/CBr)c(=O)[nH]1,47.6
6,CCCCS(=O)CCC(N)P(=O)(O)O (stereo not given),> 100

# Test system: TK-10 renal
# Assay: NCI anticancer screen, dose series, 48 h
row,SMILES,TGI [µM]
1,C1C2CC3CC1CC(Nc1nc(NC45CC6CC(CC(C6)C4)C5)nc(NC45CC6CC(CC(C6)C4)C5)n1)(C2)C3,> 100
2,COc1cc(/C=C2\C[C@H]3[C@@H]4CCc5cc(O)ccc5[C@H]4CC[C@]3(C)C2=O)cc(OC)c1OC,25.1
3,COc1ccc(N2C(=O)CC(C3CC(C(C)(C)C)CCC3=O)C2=O)cc1 (stereo not given),> 100
4,CC(=O)Nc1ccc(N2C(=O)/C(=C\c3cccc(Oc4ccccc4)c3)S(=O)(=O)C2c2ccccc2)cc1 (stereo not given),> 100
5,CCCCS(=O)CCC(N)P(=O)(O)O (stereo not given),> 100
6,O=C(O)CCC(=O)c1ccc[nH]1,> 100

# Test system: SK-MEL-2 melanoma
# Assay: NCI anticancer screen, dose series, 48 h
row,SMILES,TGI [µM]
1,C1C2CC3CC1CC(Nc1nc(NC45CC6CC(CC(C6)C4)C5)nc(NC45CC6CC(CC(C6)C4)C5)n1)(C2)C3,> 100
2,COc1cc(/C=C2\C[C@H]3[C@@H]4CCc5cc(O)ccc5[C@H]4CC[C@]3(C)C2=O)cc(OC)c1OC,31.9
3,CC(=O)Nc1ccc(N2C(=O)/C(=C\c3cccc(Oc4ccccc4)c3)S(=O)(=O)C2c2ccccc2)cc1 (stereo not given),> 100
4,O=c1cnn(C/C=C/CBr)c(=O)[nH]1,42.2
5,CCCCS(=O)CCC(N)P(=O)(O)O (stereo not given),> 100
6,O=C(O)CCC(=O)c1ccc[nH]1,> 100

# Test system: OVCAR-3 ovarian
# Assay: NCI anticancer screen, dose series, 48 h
row,SMILES,TGI [µM]
1,C1C2CC3CC1CC(Nc1nc(NC45CC6CC(CC(C6)C4)C5)nc(NC45CC6CC(CC(C6)C4)C5)n1)(C2)C3,> 100
2,COc1cc(/C=C2\C[C@H]3[C@@H]4CCc5cc(O)ccc5[C@H]4CC[C@]3(C)C2=O)cc(OC)c1OC,26.9
3,CC(=O)Nc1ccc(N2C(=O)/C(=C\c3cccc(Oc4ccccc4)c3)S(=O)(=O)C2c2ccccc2)cc1 (stereo not given),> 100
4,O=c1cnn(C/C=C/CBr)c(=O)[nH]1,64.2
5,CCCCS(=O)CCC(N)P(=O)(O)O (stereo not given),> 100
6,O=C(O)CCC(=O)c1ccc[nH]1,> 100

# Test system: NCI-H23 lung
# Assay: NCI anticancer screen, dose series, 48 h
row,SMILES,TGI [µM]
1,C1C2CC3CC1CC(Nc1nc(NC45CC6CC(CC(C6)C4)C5)nc(NC45CC6CC(CC(C6)C4)C5)n1)(C2)C3,> 100
2,COc1cc(/C=C2\C[C@H]3[C@@H]4CCc5cc(O)ccc5[C@H]4CC[C@]3(C)C2=O)cc(OC)c1OC,28.5
3,COc1ccc(N2C(=O)CC(C3CC(C(C)(C)C)CCC3=O)C2=O)cc1 (stereo not given),> 100
4,CC(=O)Nc1ccc(N2C(=O)/C(=C\c3cccc(Oc4ccccc4)c3)S(=O)(=O)C2c2ccccc2)cc1 (stereo not given),> 100
5,CCCCS(=O)CCC(N)P(=O)(O)O (stereo not given),> 100
6,O=C(O)CCC(=O)c1ccc[nH]1,> 100

# Test system: MDA-N
# Assay: NCI anticancer screen, dose series, 48 h
row,SMILES,TGI [µM]
1,C1C2CC3CC1CC(Nc1nc(NC45CC6CC(CC(C6)C4)C5)nc(NC45CC6CC(CC(C6)C4)C5)n1)(C2)C3,> 100
2,COc1cc(/C=C2\C[C@H]3[C@@H]4CCc5cc(O)ccc5[C@H]4CC[C@]3(C)C2=O)cc(OC)c1OC,62.3
3,COc1ccc(N2C(=O)CC(C3CC(C(C)(C)C)CCC3=O)C2=O)cc1 (stereo not given),> 100
4,CC(=O)Nc1ccc(N2C(=O)/C(=C\c3cccc(Oc4ccccc4)c3)S(=O)(=O)C2c2ccccc2)cc1 (stereo not given),95.3
5,O=c1cnn(C/C=C/CBr)c(=O)[nH]1,33.3
6,CCCCS(=O)CCC(N)P(=O)(O)O (stereo not given),> 100
7,O=C(O)CCC(=O)c1ccc[nH]1,> 100

# Test system: RPMI-8226 leukemia
# Assay: NCI anticancer screen, dose series, 48 h
row,SMILES,TGI [µM]
1,C1C2CC3CC1CC(Nc1nc(NC45CC6CC(CC(C6)C4)C5)nc(NC45CC6CC(CC(C6)C4)C5)n1)(C2)C3,> 100
2,COc1cc(/C=C2\C[C@H]3[C@@H]4CCc5cc(O)ccc5[C@H]4CC[C@]3(C)C2=O)cc(OC)c1OC,28.9
3,COc1ccc(N2C(=O)CC(C3CC(C(C)(C)C)CCC3=O)C2=O)cc1 (stereo not given),> 100
4,CC(=O)Nc1ccc(N2C(=O)/C(=C\c3cccc(Oc4ccccc4)c3)S(=O)(=O)C2c2ccccc2)cc1 (stereo not given),66.8
5,O=c1cnn(C/C=C/CBr)c(=O)[nH]1,49.5
6,CCCCS(=O)CCC(N)P(=O)(O)O (stereo not given),> 100
7,O=C(O)CCC(=O)c1ccc[nH]1,> 100

# Test system: OVCAR-4 ovarian
# Assay: NCI anticancer screen, dose series, 48 h
row,SMILES,TGI [µM]
1,C1C2CC3CC1CC(Nc1nc(NC45CC6CC(CC(C6)C4)C5)nc(NC45CC6CC(CC(C6)C4)C5)n1)(C2)C3,> 100
2,COc1cc(/C=C2\C[C@H]3[C@@H]4CCc5cc(O)ccc5[C@H]4CC[C@]3(C)C2=O)cc(OC)c1OC,72.8
3,COc1ccc(N2C(=O)CC(C3CC(C(C)(C)C)CCC3=O)C2=O)cc1 (stereo not given),> 100
